The text below walks through data of paper PMC4429810, “Heat shock protein 90 inhibitors repurposed against Entamoeba histolytica” (Frontiers in Microbiology, 2015).

Molecules are shown by their SMILES. Where a name gives a salt, the structure may show the parent alone.

T2 sequence (C4MBP1 1-215): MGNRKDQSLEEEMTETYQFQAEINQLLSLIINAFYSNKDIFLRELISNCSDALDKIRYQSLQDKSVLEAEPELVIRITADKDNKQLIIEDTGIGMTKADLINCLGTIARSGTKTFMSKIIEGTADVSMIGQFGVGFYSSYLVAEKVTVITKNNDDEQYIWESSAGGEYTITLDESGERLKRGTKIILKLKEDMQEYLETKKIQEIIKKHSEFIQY

The target in one experiment is T1, PfHsp90 ATP-binding domain (Plasmodium falciparum, UniProt Q8IC05).
T1 construct: gene PF3D7_0708400; from genomic DNA in pET28b, E. coli BL21(DE3); His tag said to be cut by TEV; pocket residues A38, N92, R98
T1 sequence (Q8IC05 1-211): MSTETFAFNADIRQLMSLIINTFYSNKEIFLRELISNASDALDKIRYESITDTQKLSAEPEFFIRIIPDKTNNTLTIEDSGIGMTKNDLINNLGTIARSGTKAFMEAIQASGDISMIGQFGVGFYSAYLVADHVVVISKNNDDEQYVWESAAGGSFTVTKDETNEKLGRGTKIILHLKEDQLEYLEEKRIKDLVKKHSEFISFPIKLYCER
In words: bis-ANS fluorescence displacement screen. Particulars: bis-ANS 5 μM, protein 1 μM, Tris pH 7.5, 10 mM MgCl2, 50 mM KCl, 37°C; competition with bis-ANS at ATP-binding domain.
`CO[C@H]1/C=C/O[C@@]2(C)Oc3c(C)c(O)c4c(c3C2=O)C2=NC3(CCN(CC(C)C)CC3)NC2=C(NC(=O)/C(C)=C\C=C\[C@H](C)[C@H](O)[C@@H](C)[C@@H](O)[C@@H](C)[C@H](OC(C)=O)[C@@H]1C)C4=O` [Rifabutin]: the “bis-ANS fluorescence displacement screen” value was “rifabutin showed the highest inhibition against PfHsp90”.

Another experiment has as its target T2, EhHsp90 ATP-binding domain (Entamoeba histolytica, UniProt C4MBP1).
T2 construct: gene EHI_102270; cloned from genomic DNA in pET28a, E. coli BL21(DE3); His tag said to be cut by TEV; pocket residues C49, C103, R109
In words: bis-ANS fluorescence displacement screen. Particulars: read-out: Percent inhibition of fluorescence in protein screen at 2.5 μM (%). The text has this:
bis-ANS fluorescence displacement screen on EhHsp90 ATP-binding domain
As a reminder, the inhibition is the percentage by which the read-out fell short of the control. On to `CCN(CC)Cc1cc(Nc2ccnc3cc(Cl)ccc23)ccc1O` [Amodiaquindihydrochloride dihydrate], for which the inhibition at 2.5 µM was 82.1%. On the same count and under the same terms, as for `COc1ccc2cc3[n+](cc2c1OC)CCc1cc2c(cc1-3)OCO2` [Berberine chloride], the figure is 78.3%; as for `C=CC1=C(C)/C(=C/c2[nH]c(Cc3[nH]c(/C=C4\NC(=O)C(C)=C4C=C)c(C)c3CCC(=O)O)c(CCC(=O)O)c2C)NC1=O` [Bilirubin], 73.7%; as for `CC(C)/N=c1\cc2n(-c3ccc(Cl)cc3)c3ccccc3nc-2cc1Nc1ccc(Cl)cc1` [Clofazimine], 73.7%. `COc1cccc2c1C(=O)c1c(O)c3c(c(O)c1C2=O)C[C@@](O)(C(C)=O)C[C@@H]3O[C@H]1C[C@H](N)[C@H](O)[C@H](C)O1` [Daunorubicin hydrochloride]: the inhibition at 2.5 µM was 83.2%. The same measure, in the same setting: as for `O=C1Nc2ccc(I)cc2/C1=C/c1cc(Br)c(O)c(Br)c1` [GW5074], the figure is 70.5%. On the same count and under the same terms, as for `CN(C)c1ccc(C(=C2C=CC(=[N+](C)C)C=C2)c2ccc(N(C)C)cc2)cc1` [Gentian Violet], the figure is 99.3%. For the compound `CCN(CC)CCNc1ccc(CO)c2sc3ccccc3c(=O)c12` [Hycanthone], the inhibition at 2.5 µM was found to be 90.9%. In the case of `O=C1c2c(O)ccc(O)c2C(=O)c2c(NCCNCCO)ccc(NCCNCCO)c21` [Mitoxantronedihydrochloride], the inhibition at 2.5 µM worked out at 95.3%. The same measure, in the same setting: the value for `N=C1C=CC(=C(c2ccc(N)cc2)c2ccc(N)cc2)C=C1` [Pararosaniline pamoate] was 99%; that for `O=C1c2ccccc2C(=O)c2c(O)c(O)cc(O)c21` [Purpurin] was 75%. On to `CO[C@H]1/C=C/O[C@@]2(C)Oc3c(C)c(O)c4c(c3C2=O)C2=NC3(CCN(CC(C)C)CC3)NC2=C(NC(=O)/C(C)=C\C=C\[C@H](C)[C@H](O)[C@@H](C)[C@@H](O)[C@@H](C)[C@H](OC(C)=O)[C@@H]1C)C4=O` [Rifabutin], for which the inhibition at 2.5 µM worked out at 73.7%. For `CC[C@@]1(O)C[C@H](O[C@H]2C[C@H](N(C)C)[C@H](O)[C@H](C)O2)c2c(cc3c(c2O)C(=O)c2c(O)ccc(O)c2C3=O)[C@H]1C(=O)OC` [Rutilantin], the inhibition at 2.5 µM came to 77.1%.

As to `C[n+]1cc2c3c(ccc2c2ccc4cc5c(cc4c21)OCO5)OCO3` [Sanguinarine sulfate], the inhibition at 2.5 µM came out at 71.3%. Same read-out and setting: as for `N#C/C(=C\c1ccc(O)c(O)c1)C(=O)c1ccc(O)c(O)c1` [Tyrphostin AG 538], the figure is 75%; as for `CN(C)c1ccc(C(=C2C=CC(=[N+](C)C)C=C2)c2ccccc2)cc1` [WB 64 (Malachite Green)], 84.9%.
